Source: PubChem BioAssay (NCI)
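Grown in 96-well plates, cells were treated for 48 hours with each compound at five concentrations. Insufficient inhibition: endpoint recorded as highest concentration tested. Definition used: TGI = concentration required for complete inhibition of growth.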

Experiments:
Test in all cases: NCI-60 cell line screen, 48 h
[1] = test system: ACHN renal
[2] = test system: SW-620 colon
[3] = test system: SK-MEL-5 melanoma
[4] = test system: HOP-62 NSCLC
[5] = test system: A549 NSCLC
[6] = test system: CCRF-CEM leukemia
[7] = test system: SNB-19 CNS
[8] = test system: SF-295 CNS
[9] = test system: A498 renal
[10] = test system: HCT-15 colon
[11] = test system: SK-OV-3 ovarian
[12] = test system: DLD-1 colon
[13] = test system: KM12 colon
[14] = test system: SN12C renal
[15] = test system: DMS 114 small cell lung
[16] = test system: UACC-62 melanoma
[17] = test system: SF-539 CNS
[18] = test system: 786-0 renal
[19] = test system: SK-MEL-2 melanoma
[20] = test system: K-562 leukemia
[21] = test system: UO-31 renal
[22] = test system: DMS 273 small cell lung
[23] = test system: HOP-18 NSCLC
[24] = test system: IGROV1 ovarian
[25] = test system: HCT-116 colon
[26] = test system: KM20L2 colon
[27] = test system: OVCAR-5 ovarian
[28] = test system: COLO 205 colon
[29] = test system: OVCAR-4 ovarian
[30] = test system: OVCAR-8 ovarian
[31] = test system: NCI-H460 lung
[32] = test system: OVCAR-3 ovarian
[33] = test system: LOX IMVI melanoma
[34] = test system: MOLT-4 leukemia
[35] = test system: EKVX NSCLC
[36] = test system: SNB-75 CNS
[37] = test system: NCI-H522 lung
[38] = test system: RXF 393 renal
[39] = test system: SF-268 CNS
[40] = test system: SNB-78 CNS
[41] = test system: M19-MEL melanoma
[42] = test system: HL-60(TB) leukemia
[43] = test system: NCI-H226 lung
[44] = test system: HT29 colon
[45] = test system: TK-10 renal
[46] = test system: HOP-92 NSCLC
[47] = test system: SK-MEL-28 melanoma
[48] = test system: CAKI-1 renal
[49] = test system: XF 498 CNS
[50] = test system: LXFL 529 NSCLC
[51] = test system: MALME-3M melanoma
[52] = test system: NCI-H23 lung
[53] = test system: M14 melanoma
[54] = test system: UACC-257 melanoma
[55] = test system: HCC-2998 colon
[56] = test system: SR leukemia
[57] = test system: U251 CNS
[58] = test system: RXF-631 renal
[59] = test system: RPMI-8226 leukemia

## COc1ccc(NC(=O)c2oc3cc(O)ccc3c(=O)c2C)c([N+](=O)[O-])c1
[1]
  TGI: > 100 µM
[2]
  TGI: > 100 µM
[3]
  TGI: > 100 µM
[4]
  TGI: > 100 µM
[5]
  TGI: > 100 µM
[6]
  TGI: > 100 µM
[7]
  TGI: > 100 µM
[8]
  TGI: > 100 µM
[9]
  TGI: > 100 µM
[10]
  TGI: > 100 µM
[11]
  TGI: > 100 µM
[12]
  TGI: > 100 µM
[13]
  TGI: > 100 µM
[14]
  TGI: > 100 µM
[15]
  TGI: > 100 µM
[16]
  TGI: > 100 µM
[17]
  TGI: > 100 µM
[18]
  TGI: > 100 µM
[19]
  TGI: > 100 µM
[20]
  TGI: > 100 µM
[21]
  TGI: > 100 µM
[22]
  TGI: > 100 µM
[23]
  TGI: > 100 µM
[24]
  TGI: > 100 µM
[25]
  TGI: > 100 µM
[26]
  TGI: > 100 µM
[27]
  TGI: > 100 µM
[28]
  TGI: > 100 µM
[29]
  TGI: > 100 µM
[30]
  TGI: > 100 µM
[31]
  TGI: > 100 µM
[32]
  TGI: > 100 µM
[33]
  TGI: > 100 µM
[34]
  TGI: > 100 µM
[35]
  TGI: > 100 µM
[36]
  TGI: > 100 µM
[37]
  TGI: > 100 µM
[38]
  TGI: > 100 µM
[39]
  TGI: > 100 µM
[40]
  TGI: > 100 µM
[41]
  TGI: > 100 µM
[42]
  TGI: > 100 µM
[43]
  TGI: > 100 µM
[44]
  TGI: > 100 µM
[45]
  TGI: > 100 µM
[46]
  TGI: > 100 µM
[47]
  TGI: > 100 µM
[48]
  TGI: > 100 µM
[49]
  TGI: > 100 µM
[50]
  TGI: > 100 µM
[51]
  TGI: > 100 µM
[52]
  TGI: > 100 µM
[53]
  TGI: > 100 µM
[54]
  TGI: > 100 µM
[55]
  TGI: > 100 µM
[56]
  TGI: > 100 µM
[57]
  TGI: > 100 µM

## C[C@]12Cc3conc3C(O)=C1CC[C@@H]1C2CC[C@@]2(C)C1CC[C@]2(C)O (some centres not stated)
[1]
  TGI: 89.5 µM
[2]
  TGI: > 100 µM
[3]
  TGI: 30.7 µM
[4]
  TGI: 64.2 µM
[5]
  TGI: > 100 µM
[6]
  TGI: 46.5 µM
[7]
  TGI: > 100 µM
[8]
  TGI: 74.3 µM
[9]
  TGI: 51.9 µM
[10]
  TGI: > 100 µM
[11]
  TGI: 57.4 µM
[12]
  TGI: 57.5 µM
[13]
  TGI: 64.9 µM
[14]
  TGI: > 100 µM
[15]
  TGI: 43.4 µM
[16]
  TGI: 29.2 µM
[58]
  TGI: > 100 µM
[59]
  TGI: 22.7 µM
[17]
  TGI: 60.6 µM
[18]
  TGI: > 100 µM
[19]
  TGI: 39.3 µM
[20]
  TGI: 87.8 µM
[21]
  TGI: 50.3 µM
[22]
  TGI: 26.3 µM
[24]
  TGI: 62.2 µM
[25]
  TGI: 39.3 µM
[26]
  TGI: 42.7 µM
[27]
  TGI: 92.2 µM
[28]
  TGI: 52.1 µM
[29]
  TGI: 44.4 µM
[30]
  TGI: 61.3 µM
[31]
  TGI: 36.3 µM
[32]
  TGI: 80.7 µM
[33]
  TGI: 22.7 µM
[34]
  TGI: 42.3 µM
[35]
  TGI: 87.6 µM
[36]
  TGI: 32.4 µM
[38]
  TGI: 44 µM
[39]
  TGI: > 100 µM
[40]
  TGI: 63.4 µM
[41]
  TGI: 41.9 µM
[42]
  TGI: 10.7 µM
[43]
  TGI: 47.3 µM
[44]
  TGI: 89.4 µM
[45]
  TGI: 71.9 µM
[46]
  TGI: 61.5 µM
[47]
  TGI: 83 µM
[49]
  TGI: 47.2 µM
[50]
  TGI: 35.7 µM
[51]
  TGI: 59.2 µM
[52]
  TGI: 49.9 µM
[53]
  TGI: 36.2 µM
[54]
  TGI: 80.4 µM
[55]
  TGI: 62.1 µM
[57]
  TGI: 48.9 µM
